Test results published in paper PMC10119279 (Scientific Reports, 2023).
“And” between values parts separate entries of the source, which are not always exact repeats. Equal entries are not always repeated. Where two headings read alike, the source gives them in different places. Blank lines part the entries; values can stand above or below the compound they belong to.

How the values were obtained:
[1] = molecular target: T1, CN1 enzyme (Homo sapiens, UniProt Q96KN2); test: In vitro degradation of carnosine, anserine and balenine added to human heparin plasma; assay type: in vitro ADME; settings: for half-life at 20 µM: human, heparin plasma
T1 construct: Fasted venous heparin plasma was collected from 6 subjects (5 males and 1 female) with a wide range in CN1 enzyme activity; from tissue; host or cells: human venous heparin plasma from 6 volunteers
T1 sequence (Q96KN2 26-507): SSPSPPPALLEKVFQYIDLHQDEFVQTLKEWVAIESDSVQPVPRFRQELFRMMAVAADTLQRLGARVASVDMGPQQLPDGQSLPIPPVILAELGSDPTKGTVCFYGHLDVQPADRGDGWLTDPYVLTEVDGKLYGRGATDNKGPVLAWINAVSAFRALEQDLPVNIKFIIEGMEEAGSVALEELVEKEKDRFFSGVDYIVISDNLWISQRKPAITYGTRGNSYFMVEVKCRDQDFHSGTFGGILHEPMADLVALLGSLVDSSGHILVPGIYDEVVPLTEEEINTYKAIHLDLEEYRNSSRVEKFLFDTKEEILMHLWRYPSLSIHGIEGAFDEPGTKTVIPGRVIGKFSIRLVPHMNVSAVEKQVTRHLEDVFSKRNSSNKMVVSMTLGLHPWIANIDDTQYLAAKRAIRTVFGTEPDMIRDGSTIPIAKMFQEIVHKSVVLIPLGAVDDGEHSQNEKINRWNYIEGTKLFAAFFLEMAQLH
Procedure: Fasted venous heparin plasma was collected from 6 subjects (5 males and 1 female) with a wide range in CN1 enzyme activity (0.32–2.92 µmol/mL/h with a mean value of 1.62 µmol/mL/h). Subjects were asked to refrain from alcohol, meat and fish the day before the sampling. […] On different time points (Table 1), plasma was deproteinized with 1:11 sulfosalicylic acid (SSA, 35% solution) to inhibit further hydrolysis. Samples were centrifuged for 5 min at 16,000 g and supernatant was stored at − 20 °C until further UHPLC-MS/MS analysis.
(§1) Extraction of plasma and urine for UHPLC-MS/MS analysis went as follows: 150 µL of deproteinized plasma/urine (not deproteinized) was added to 215 µL of acetonitrile containing 1% formic acid, 10 µL of internal standard (IS) (carnosine-D4) and 25 µL ultrapure water or standard (calibration curve and quality control samples (QC)). Then samples were vortexed and centrifuged (15 min, 4 °C, 15,000 g). Supernatant was used for further analyses.
(§2) In the in vitro study, supernatant was diluted 40 times before injection. In the PK study, plasma samples from the 10 mg/kg condition and baseline urine samples were diluted 100 times. All other urine samples were diluted 1000 times. Dilutions were conducted with acetonitrile containing 1% formic acid.
(§3) Analyses were performed on a UHPLC-MS/MS platform consisting of an Acquity H-Class Quaternary Solvent Manager and Flow-Through-Needle Sample Manager with temperature controlled tray (8 °C) and column oven (60 °C). Chromatographic separation was achieved on an Acquity UPLC BEH amide column (2.1 mm × 100 mm, 1.7 µm) with an Acquity amide Vanguard pre-column. The system operated at a flow rate of 0.3 mL/min with solvent A (ultrapure water), solvent B (acetonitrile) and solvent C (200 mM ammonium formate with 0.04% ammonia) with the gradient shown in Table 2. The UPLC column effluent was interfaced to a Xevo TQ-XS® MS/MS system (plasma samples) and Xevo TQ-S® (urine samples), equipped with an electrospray ionization (ESI) probe operating in positive ion mode. Further MS settings included desolvation gas flow rate (15 L/h), desolvation temperature (600 °C), cone gas flow rate (800 L/h), source temperature (150 °C) and capillary voltage (0.75 kV). Transition details are depicted in Table 3. […] The detector operated in multiple reacting monitoring mode, scanning the two most intense transitions of the HCDs. Masslynx software 4.2 was used for instrument control and data extraction. Hardware and software were purchased from Waters (Milford, MA, USA).
CN1 activity was quantified by fluorometric determination of histidine following carnosine addition (based on Teufel et al., 2003). The reaction was initiated by adding carnosine to the serum (final concentration of 3.33 mM carnosine) and stopped after 10 min incubation at 37 °C by adding trichloroacetic acid (final concentration of 150 mM TCA). For controls, trichloroacetic acid was added before carnosine. After centrifugation (15 min, 16000 g), 10 µl supernatant was added to 190 µl of an OPA-NaOH mixture (4000 µl incomplete ophtaldehyde, with 0.2% 2-mercaptoethanol, and 15 ml of 4 M sodium hydroxide solution) and fluorescence was determined after 40 min (excitation: 360 nm and emission: 465 nm). All chemicals were purchased from Sigma-Aldrich (Milan, Italy).
HCD concentration in the in vitro experiment was calculated relative to the starting concentration. Elimination constant (ke) and elimination half-life were calculated based on a monophasic decay profile. Incremental area under the plasma concentration time curve (iAUC) was calculated using the trapezoidal method in the PK study. A normality check was performed using Shapiro-Wilk’s test. In case of normally distributed data, a mixed-effects model and Pearson correlation was used. Skewed data were analysed with Friedman tests and Spearman rank correlations. Values are presented as mean/median ± standard deviation/inter quartile range and 95% confidence intervals (95% CI). […]

[2] = In vivo pharmacokinetic experiment: plasma and urine balenine after acute oral ingestion; design: species or system human; settings: for Urinary balenine excretion: urine up to 24 h; for Cmax: read-out: Cmax (peak plasma concentration)
Procedure: Six subjects (3 males and 3 females) participated in this PK study in which three increasing doses were tested. For the third dose, […] was replaced, due to pregnancy, by […] with similar CN1 activity. […] This means that half of the dose was administered as 5 mg/kg (weight-relative part) and the other half was an absolute dose based on the mean weight of the subjects of the third test day (341 mg; fixed part).
The day before a test day, subjects were asked to refrain from meat and fish. Upon arrival, a catheter was inserted in an antecubital vein and a fasted ethylenediaminetetraacetic acid (EDTA, 4 mL) and serum sample (3.5 mL, to determine CN1 activity) were collected. […] The following 2 h, every 30 min an EDTA blood sample was taken. Then after 3, 4, 5, 8 and 24 h, another sample was withdrawn. Urine was collected after 150 min, 5, 8 and 24 h. The subjects arrived in the lab and remained fasted until 2 h after ingesting the supplement. Subjects remained in the lab until the post 8 h blood sample, and returned the following morning for the post 24 h sample. Throughout the test day, food intake was standardized (lacto-ovo-vegetarian diet) ensuring minimal HCD intake for 24 h following supplement. Figure 5 gives a schematic overview of a test day.
Plasma samples were collected in pre-cooled (4 °C) EDTA tubes. Upon withdrawal, plasma was immediately deproteinized with 1:11 SSA, centrifuged (5 min, 16 000 g) and stored at − 20 °C.
as §1, §2, §3
CN1 activity was quantified by fluorometric determination of histidine following carnosine addition (based on Teufel et al., 2003).

[3] = system: Sprague Dawley rats
Procedure: Following treatment, a 2 week observation period with twice daily examination for morbidity and mortality was performed.

[4] = system: serum carnosinase (CN1) enzyme; settings: cited from earlier work; for Substrate quality for the CN1 enzyme: ref 15-17; for Hydrolysis rate as % of carnosine's: several in vitro experiments
[5] = compared to carnosine and anserine; cited from earlier work
[6] = design: method as in PMID 30449006; settings: ref 10; cited from earlier work
[7] = clinical; settings: both, human, plasma and urine, oral
Procedure: Plasma concentrations were described using a 1-compartmental model, with sequential zero- and first-order absorption and linear elimination. Cumulative urine concentrations were fitted simultaneously with plasma concentrations. Inter-occasion variability was also implemented and assumed to follow a lognormal distribution. Residual variability was described using a combined error model, consisting of an additive and a proportional component. The following covariates were tested: sex, age, weight, CN1 activity and dose. Model evaluation was done based on standard goodness-of-fit metrics (objective function value, standard errors) and plots.

[8] = cited from earlier work
[9] = system: human peptide transporter 2 (PEPT2); design: method as in PMID 20067523; settings: ref 23; cited from earlier work
[10] = both sexes, 20 µM added to human heparin plasma, 37 °C, 6 subjects, read-out: Half-life in plasma
[11] = in vitro human heparin plasma, factor ×, not significant
[12] = 20 µM added to heparin plasma, 37 °C
[13] = 20 µM added to human heparin plasma, 37 °C, 6 subjects

Compound: Cn1cnc(CC(NC(=O)CCN)C(=O)O)c1 [balenine, β-alanyl-N(τ)-methyl-L-histidine]
Time remaining elevated above LOQ in plasma ([1]; 20 µM added to heparin plasma, 37 °C, LOQ 0.05 µM): up to 5 h | half-life at 20 µM [1, 10]: 34.9 ± 14.6 min | half-life at 20 µM ([1]; in vitro, read-out: Half-life in plasma with the highest CN1 activity): 15 min | Half-life in plasma with the lowest CN1 activity relative to highest ([1]; in vitro): threefold higher half-life | Elimination rate constant relative to carnosine ([1]; in vitro human heparin plasma): 3.86% | Elimination constant ke: factor lower for balenine compared to carnosine ([1]; in vitro human heparin plasma, factor ×): 25.9 | Elimination constant ke: factor difference between balenine and anserine [1, 11]: 14.0 | Urinary excretion as % of the ingested dose ([2]; 1 mg/kg oral): 27.3% | Urinary balenine excretion ([2]; 1 mg/kg oral): 19.3 ± 13.1 mg | Time plasma balenine remained significantly increased ([2]; 4 mg/kg oral): up to 3 h | Urinary excretion as % of the ingested dose ([2]; 4 mg/kg oral): 29.7% | Urinary balenine excretion ([2]; 4 mg/kg oral): 82.0 ± 40.5 mg | Cmax of balenine relative to anserine at the same dose ([2]; 10 mg/kg oral): 25.9 fold | Plasma iAUC of balenine relative to anserine ([2]; 10 mg/kg oral): 136 fold | Time plasma balenine remained significantly increased ([2]; 10 mg/kg oral): up to 8 h | Urinary excretion as % of the ingested dose ([2]; 10 mg/kg oral): 25.2% | Cmax ([2]; 10 mg/kg oral (fragmented dose), human, n = 6): 28 µM | Plasma iAUC ([2]; 10 mg/kg oral, human): 8960 µM·min | Urinary balenine excretion ([2]; 10 mg/kg oral): 176 ± 95.9 mg | Average excreted percentage of the dose in urine (intact) ([2]; average over doses, n = 6): 27.4% | Cmax ([2]; both sexes, human, plasma, po, 1 mg/kg, 1 mg/kg oral, human, n = 6): 1.6 ± 0.5 µM | Cmax ([2]; both sexes, human, plasma, po, 4 mg/kg, 4 mg/kg oral, human, n = 6): 7.1 ± 1.2 µM | Cmax ([2]; both sexes, human, plasma, po, 10 mg/kg, 10 mg/kg oral (fragmented dose), human, n = 6): 28.2 ± 7.4 µM | Cmax ratio 4 mg/kg vs 1 mg/kg ([2]; oral, human): 4.4 times | Cmax ratio 10 mg/kg vs 1 mg/kg ([2]; oral, human): 17.6 fold and 18 fold | Cmax ratio 10 mg/kg vs 4 mg/kg ([2]; oral, human): 4 times | Urinary excretion after 1 mg/kg: times lower than after 4 mg/kg ([2]; oral, human): 4 times | iAUC ratio 4 mg/kg vs 1 mg/kg ([2]; oral, human): 3.8 times | iAUC ratio 10 mg/kg vs 1 mg/kg ([2]; oral, human): 14.2 fold | iAUC ratio 10 mg/kg vs 4 mg/kg ([2]; oral, human): 3.7 times | Pathological changes, morbidity and mortality ([3]; female Sprague Dawley rats, acute increasing doses up to 2000 mg/kg, 2 week observation): No pathological changes were observed in any animal | Dose concluded safe ([3]; female, Sprague Dawley, rat, in vivo, 2 weeks): 2000 mg/kg | Duration of zero-order input (dT1) (1 and 4 mg/kg doses, shorter for 10 mg/kg): 1.13 h | Absorption constant (ka) (first-order absorption, fixed to last estimated value): 3.48 h⁻¹ | Fraction excreted in urine (pu) (population estimate): 0.56 | Substrate quality for the CN1 enzyme [4]: poor | Rate of hydrolysis relative to carnosine ([4]; ref 15): 8% | Rate of hydrolysis relative to carnosine ([4]; ref 16): 3.81% | Hydrolysis rate as % of carnosine's [4]: 5–20% | Antioxidant and iron-chelating capacity [5]: higher antioxidant and iron-chelating capacity than carnosine and anserine | Ability to quench reactive aldehydes such as HNE and acrolein [6]: lacks the ability to quench reactive aldehydes | Vd [7]: 126 L | clearance [7]: 327 mL/min | half-life [7]: 12 min

Time after which undetectable in plasma [1, 12]: 5 min | Half-life in plasma [1, 13]: 1 min | half-life at 20 µM [1, 10]: 1.2 ± 0.36 min
Compound: NCCC(=O)N[C@@H](Cc1cnc[nH]1)C(=O)O [carnosine, β-alanyl-L-histidine, reference compound]
Substrate quality for the CN1 enzyme [4]: good | Plasma concentration change after ingestion ([8]; 60 mg/kg bodyweight, only in people with low CN1 activity): small increase | Plasma level after ingestion ([8]; highest dose of 20 mg/kg oral, human): barely measurable

Compound: NCCC(=O)NC(CO)Cc1cnc[nH]1 (stereo not drawn) [carnosinol, reference compound]
Resistance to CN1 ([4]; ref 29): resistant to CN1

Time after which undetectable in plasma [1, 12]: 15 min | Half-life in plasma [1, 13]: 2 min | half-life at 20 µM [1, 10]: 2.14 ± 0.58 min | Elimination constant ke: factor difference between carnosine and anserine [1, 11]: 1.8
Compound: Cn1cncc1C[C@H](NC(=O)CCN)C(=O)O [anserine, β-alanyl-N(π)-methyl-L-histidine, reference compound]
Substrate quality for the CN1 enzyme [4]: intermediate | Hydrolysis rate as % of carnosine's [4]: 30–50% | Cmax ([8]; 4 mg/kg oral, human): 0.54 µM | Cmax ([8]; 10 mg/kg oral, human): 1.1 µM | Plasma iAUC ([8]; 10 mg/kg oral, human): 66.7 µM·min | Dose-dependent peak plasma concentrations after ingestion ([8]; human): 0.5 to 3.1 µM | Average excreted percentage of the dose in urine (intact) ([8]; n = 7): 6.3% | Affinity for PEPT2 [9]: high-affinity ligand
